Experimental data taken from US9163035B2, “Melonine bisindole compounds, pharmaceutical compositions, preparation method and use thereof” (Kunming Institute of Botany, The Chinese Academy of Sciences, priority 2009, dated 2015).
pIC50: −log10 of the molar value. Read-outs that look alike come from different tables or passages of the source.

Tests used:
[1] = system: SMMC7721, human liver cancer cell strain; test: IC50 test on tumor cells (MTT), SMMC7721; type: cell-based; details: read-out: Half Inhibitory concentrations (IC50) on human tumor cell strain growth
Description: (§1) The melonines A, B, C and D as prepared in Example 1 were separately dissolved with dimethyl sulfoxide (DMSO) to form 1 mg/ml storage solutions, stored away from light for standby use.
(§2) Cisplatin was used as positive control.
(§3) (1) Inoculating cells: preparing cell suspension with culture medium comprising 10% fetal bovine serum (DMEM or RMPI1640), inoculating 96 wells plate with 10000-20000 cells per well (100 μl per well); if adherent cells are needed, inoculation and culture will be conducted 12 h in advance.
(§4) (2) adding a solution of compound to be tested (compound monomer of fixed concentration 40 μM for primary screening, crude extract of 100 μg/ml for primary screening, setting 5 concentrations for gradient repetitive screening for those compounds with a tumor cell growth inhibition rate of about 50% at the concentration for primary screening), final volume of 200 μl per well, and setting 3 repetitive wells for each treatment.
(§5) (3) Developing: culturing at 37° C. for 48 h, adding 20 μl of MTT solution to each well, continually incubating for 4 h, terminating cultivation, carefully discarding supernatant 100 μl to avoid cell lose, adding 20% SDS 100 μl to each well, incubating overnight (37° C.) to completely dissolve crystal.
(§6) (4) colorimetric analysis: selecting 595 nm wavelength, reading light absorption value of each well by […] (Bio-Rad 680), recording results, plotting cell growth curve using concentration as abscissa and cell survival rate as ordinate, and calculating IC50 value of compound using Reed and Muench method.
(§7) (5) Positive control: cisplatin.

[2] = system: SK-BR-3, human breast cancer cell strain; test: IC50 test on tumor cells (MTT), SK-BR-3; type: cell-based; details: SK-BR-3, MTT, 48 h, read-out: Half Inhibitory concentrations (IC50) on human tumor cell strain growth
Description: as §1, §2, §3, §4, §5, §6, §7

[3] = system: A549, human lung cancer cell strain; test: IC50 test on tumor cells (MTT), A549; type: cell-based; details: 48 h, read-out: Half Inhibitory concentrations (IC50) on human tumor cell strain growth
Description: as §1, §2, §3, §4, §5, §6, §7

[4] = system: PANC-1, human pancreatic cancer cell strain; test: IC50 test on tumor cells (MTT), PANC-1; type: cell-based; details: PANC-1, MTT, 48 h, read-out: Half Inhibitory concentrations (IC50) on human tumor cell strain growth
Description: as §1, §2, §3, §4, §5, §6, §7

[5] = system: HL-60, human leukemic cell strain; test: IC50 test on tumor cells (MTT), HL-60; type: cell-based; details: HL-60, MTT, 48 h, read-out: Half Inhibitory concentrations (IC50) on human tumor cell strain growth
Description: as §1, §2, §3, §4, §5, §6, §7

[6] = Solubility (qualitative description); type: physicochemical
[7] = system: human NCI-H460 nude mouse transplanted tumor; test: Activity against nude mouse-transplanted tumors; type: in vivo, female BALB/cA nude mice; details: 10 mg/kg intravenous, 3 times per week
Description: (§8) Test animals: female BALB/cA nude mice, 35-40 days, body weight 18-22 g, provided by Shanghai Slack, certificate no.: SCXK (Hu) 2007-0005. Divided into four groups:
Negative control group: 12 mice (intravenous injection with physiological saline, 3 times per week).
(§9) Administration group 1: 6 mice, intravenously administered with melonine C, in a dose of 20 mg/kg, 3 times per week.
(§10) Administration group 2: 6 mice, intravenously administered with melonine C, in a dose of 10 mg/kg, 3 times per week.
(§11) Administration group 3: 6 mice, intravenously administered with melonine C, in a dose of 2 mg/kg, 3 times per week.
Transplanted tumors: human NCI-H460 nude mouse transplanted tumor, established by subcutaneously inoculating human NCI-H460 cell strain to female BALB/c nude mice (from Shanghai Slack Co., Ltd.). Inoculated cell number was 3×10^6, the formed transplanted tumor after inoculation was then passaged 3 times in body of nude mice before use. […]
The well-grown tumor tissues were cut into 1.5 mm^3 pieces, inoculated into right-side armpit subcutaneously under sterile condition. The nude mouse transplanted tumore diameter was measured by vernier caliper, and the animals were grouped randomly when the tumore grew to 100-300 mm^3. […]

[8] = Acute toxicity test, mice; details: mouse, in vivo, intravenous, tail vein injection
Description: (§12) Animal lines: healthy mice, rats. Age was 7-9 weeks. In the same batch of tests, the initial body weight of mice or rats should not be greater or less than the average body weight by 20%.
(§13) Administration route: tail vein injection for both rats and mice.
(§14) Measurement of median lethal dose (LD50):
Maximum tolerated dose (MTD) test method: MTD refers to a dose that causes significant toxic reaction without death in animals.
(§15) Test observation: the observation was performed for one week after administered with the drug to be tested, the time of appearance and disappearance of various toxic reactions was carefully observed and recorded for each animal. The observation and recording were performed twice on the day of administering the drug to be tested, then once per day in the following days. The contents to be observed and recorded include skin, mucous membrane, coat color, eyes, respiration, circulation, behaviors of autonomic and central nervous systems, etc. Before the drug to be tested was administered, one week after the drug to be tested was administered, when the animal died, and when the test was ended, the animals were weighed to get their body weights. All animals, including dead or executed animals, were subjected to autopsy, and histopathologic examination was performed for organs with abnormal autopsy results.

[9] = Body weight of NCI-H460 tumor-bearing nude mice; type: in vivo, female BALB/cA nude mice; details: 20, 10 and 2 mg/kg intravenous, 3 times per week
Description: as §8, §9, §10, §11
The well-grown tumor tissues were cut into 1.5 mm^3 pieces, inoculated into right-side armpit subcutaneously under sterile condition. The nude mouse transplanted tumore diameter was measured by vernier caliper, and the animals were grouped randomly when the tumore grew to 100-300 mm^3. The antitumor effects of the compounds to be tested were observed by measuring tumor diameters. The number of measuring tumore diameters was 3 per week, and the mice were weighed simultaneously when each measurement was conducted. Melonine C was intravenously administered in doses of 20 mg/kg, 10 mg/kg, 2 mg/kg, separately, 3 times per week.

[10] = Acute toxicity test, observation and autopsy; type: in vivo; details: tail vein injection, immediately after dosing
Description: as §12, §13, §15

[11] = Acute toxicity test, rats; details: rat, in vivo, intravenous, tail vein injection
Description: as §12, §13, §14, §15

pIC50 ([1]; Homo sapiens, SMMC-7721, 48 h) | pIC50 ([2]; Homo sapiens) | pIC50 ([3]; Homo sapiens) | pIC50 ([4]; Homo sapiens) | pIC50 ([5]; Homo sapiens) | solubility in acetone [6] | solubility in chloroform ([6]; chloroform) | solubility in methanol [6] | solubility in water [6] | SMILES | pIC50 ([1]; 48 h) | pIC50 [2] | pIC50 [3] | pIC50 [4] | pIC50 [5] | relative tumor proliferation rate T/C (%) [7] [%] | LD50 at 1 week ([8]; mice) [mg/kg] | MTD at 1 week ([8]; printed on the mice line, read-out: MTD (maximum tolerated dose)) [mg/kg] | effect on the body weight [9] | toxic reactions observed [10] | LD50 at 1 week [11] [mg/kg]
– | – | – | – | – | – | – | – | – | N.N.[Cl][Pt][Cl] [Cisplatine, Cisplatin, reference compound] | 4.85 | 4.65 | 4.58 | 4.71 | 6.12 | – | – | – | – | – | –
4.94 | 4.81 | 4.66 | < 4.40 | 5.55 | Easily soluble | Easily soluble | Easily soluble | slightly soluble | CCC12CCCNC3=C(C(=O)C(=O)C=C3C3CC4(CC)CCCN5CCc6c(n3c3ccccc63)C54)C3=C1N(CCC2)CC3 (centres unmarked) [Melonine A, melonine A] | – | – | – | – | – | – | – | – | – | – | –
5.13 | 5.11 | 4.83 | 4.84 | 5.60 | slightly soluble | – | Easily soluble | slightly soluble | CCC12CCCN3CCc4c(n(c5ccccc45)C(c4cc5c(cc4O)N4CCCC6(CC)CCCN7CCC5(OC)C746)C1)C32 (centres unmarked) [Melonine B, melonine B] | – | – | – | – | – | – | – | – | – | – | –
4.74 | 4.63 | 4.96 | 4.63 | 5.56 | slightly soluble | – | Easily soluble | slightly soluble | CCC12CCCN3CCc4c(n(c5ccccc45)C(c4ccc(O)c5c4N=C4CCC6(CC)CCCN7CCC45C76)C1)C32 (centres unmarked) [Melonine D, melonine D] | – | – | – | – | – | – | – | – | – | – | –

SMILES | pIC50 ([1]; Homo sapiens, SMMC-7721, 48 h) | pIC50 ([2]; Homo sapiens) | pIC50 ([3]; Homo sapiens) | pIC50 ([4]; Homo sapiens) | pIC50 ([5]; Homo sapiens) | solubility in acetone [6] | solubility in chloroform ([6]; chloroform) | solubility in methanol [6] | solubility in water [6] | pIC50 ([1]; 48 h) | pIC50 [2] | pIC50 [3] | pIC50 [4] | pIC50 [5] | relative tumor proliferation rate T/C (%) [7] [%] | LD50 at 1 week ([8]; mice) [mg/kg] | MTD at 1 week ([8]; printed on the mice line, read-out: MTD (maximum tolerated dose)) [mg/kg] | effect on the body weight [9] | toxic reactions observed [10] | LD50 at 1 week [11] [mg/kg]
CCC12CCCN3CCc4c(n(c5ccccc45)C(c4ccc(O)c5c4NC4CCC6(CC)CCCN7CCC54C76)C1)C32 (centres unmarked) [Melonine C, melonine C] | 5.56 | 5.44 | 5.52 | 5.42 | 6.18 | slightly soluble | – | easily soluble | slightly soluble | – | – | – | – | – | 56.41 | 32 | 22 | no significant effect | accelerated breathing, ataxia, convulsions, or even died | 20
